Common to all, as to assay type: physicochemical
Data set [1] can be described thus: Adhesiveness (amount of material sticking to the punch). To be noted: about 30 mg, φ8 mm round tooling, 10 kN, compression repeated twice. The method, then: Approximately 30 mg of Form A and Form I in WO2017002095A1 were weighed, added into the dies of a φ8 mm round tooling, compressed at 10 kN and held for about 30 s. The amount of material sticking to the punch was weighed. The compression was repeated twice and the cumulative amount and average amount of material sticking to the punch during the compression were recorded.
Approximately 30 mg of Form F and Form I in WO2017002095A1 were weighed, added into the dies of a φ8 mm round tooling, compressed at 10 kN and held for about 30 s. The amount of material sticking to the punch was weighed. The compression was repeated twice and the cumulative amount and average amount of material sticking to the punch during the compression were recorded.
Approximately 30 mg of Form G and Form I in WO2017002095A1 were weighed, added into the dies of a φ8 mm round tooling, compressed at 10 kN and held for about 30 s. The amount of material sticking to the punch was weighed. The compression was repeated twice and the cumulative amount and average amount of material sticking to the punch during the compression were recorded.

The nature of data set [2]: Intrinsic dissolution rate in pH 2.5 HCl/NaCl aqueous solution. To be noted: for Cumulative dissolution: 0.5 cm^2 pellet. Here is the method:
Approximately 200 mg of Form A and Form I in WO2017002095A1 were added into the die, compressed at 10 kN and held for 1 minute to obtain a pellet having a surface area of 0.5 cm^2. The whole tool with the pellet was transferred to a dissolution apparatus to test the intrinsic dissolution rate. The slope (mg/min) was calculated according to the data within 0-45 minutes. Intrinsic dissolution rate (IDR, mg/min/cm^2) was further calculated according to the slope.
Approximately 200 mg of Form D and Form I in WO2017002095A1 were added into the die, compressed at 10 kN and held for 1 minute to obtain a pellet having a surface area of 0.5 cm^2. The whole tool with the pellet was transferred to a dissolution apparatus to test the intrinsic dissolution rate. The slope (mg/min) was calculated according to the data within 0-45 minutes. Intrinsic dissolution rate (IDR, mg/min/cm^2) was further calculated according to the slope.
Approximately 200 mg of Form F and Form I in WO2017002095A1 were added into the die, compressed at 10 kN and held for 1 minute to obtain a pellet having a surface area of 0.5 cm^2. The whole tool with the pellet was transferred to a dissolution apparatus to test the intrinsic dissolution. The slope (mg/min) was calculated according to the data within 0-45 minutes. Intrinsic dissolution rate (IDR, mg/min/cm^2) was further calculated according to the slope.
Approximately 200 mg of Form G and Form I in WO2017002095A1 were added into the die, compressed at 10 kN and held for 1 minute to obtain a pellet having a surface area of 0.5 cm^2. The whole tool with the pellet was transferred to a dissolution apparatus to test the intrinsic dissolution. The slope (mg/min) was calculated according to the data within 0-45 minutes. Intrinsic dissolution rate (IDR, mg/min/cm^2) was further calculated according to the slope.
Approximately 200 mg of Form CS15 and Form I in WO2017002095A1 were added into the die, compressed at 10 kN and held for 1 minute to obtain a pellet having a surface area of 0.5 cm^2. The whole tool with the pellet was transferred to a dissolution apparatus to test the intrinsic dissolution. The slope (mg/min) was calculated according to the data within 0-45 minutes. Intrinsic dissolution rate (IDR, mg/min/cm^2) was further calculated according to the slope.

Data set [3] in a line: Flowability (compressibility index / Carr index). The method, then: Compressibility index or Carr index is usually utilized to evaluate the flowability of powder and granules during the drug product process. Compressibility index test method is as follows: a certain amount of powder was added into a measuring cylinder and bulk volume was recorded. Then the powder was tapped to make it in the tightest state and the tapped volume was recorded. The bulk density (ρ0) and tapped density (ρf) were calculated. Compressibility index was calculated according to c=(ρf−ρ0)/ρf.
Compressibility index or Carr index is usually utilized to evaluate the flowability of powder and granules during the drug product process. Compressibility index test method is as follows: a certain amount of powder was added into a measuring cylinder and bulk volume was recorded. Then the powder was tapped to make it in the tightest state and the tapped volume was recorded. The bulk density (ρ0), tapped density (ρf) were calculated and compressibility index was calculated according to c=(pf-po)/pf.
Compressibility index or Carr index is usually utilized to evaluate the flowability of powder and granules during the drug product process. Compressibility index test method is as follows: a certain amount of powder was added into a measuring cylinder and bulk volume was recorded. Then the powder was tapped to make it in the tightest state and the tapped volume was recorded. The bulk density (ρ0), tapped density (ρf) were calculated and compressibility index was calculated according to c=(ρf−ρ0)/ρf.

Data set [4] can be described thus: Stability of crystalline form on storage, checked by XRPD. To be noted: for Solid form: XRPD. The method, then: Approximately 10 mg of Form A of the present disclosure was weighed and stored at different conditions of 25° C./60% RH in open dish, 25° C./60% RH in closed dish, 40° C./75% RH in open dish, and 40° C./75% RH in closed dish. Crystalline forms were checked by XRPD.
Approximately 10 mg of Form D of the present disclosure was weighed and stored at different conditions of 25° C./60% RH in closed dish, 25° C./60% RH in open dish, 40° C./75% RH in closed dish. Crystalline form was checked by XRPD.
Approximately 10 mg of Form F of the present disclosure was weighed and stored at different conditions of 25° C./60% RH in closed dish, 25° C./60% RH in open dish, and 40° C./75% RH in closed dish, 40° C./75% RH in open dish. Crystalline forms were checked by XRPD.
Approximately 10 mg of Form G of the present disclosure was weighed and stored at 25° C./60% RH in closed dish. Crystalline forms were checked by XRPD.
Approximately 10 mg of Form CS15 of the present disclosure was weighed and stored at different conditions of 25° C./60% RH in open dish, 25° C./60% RH in closed dish. Crystalline forms were checked by XRPD.

Data on 1 compound can be found in patent publication US11091494B2, “Crystal form of acalabrutinib and preparation method and use thereof” (Crystal Pharmaceutical (Suzhou) Co., Ltd., priority 2018, dated 2021).

As to `CC#CC(=O)N1CCC[C@H]1c1nc(-c2ccc(C(=O)Nc3ccccn3)cc2)c2c(N)nccn12` [Form G, (S)-4-(8-amino-3-(1-(but-2-ynoyl)pyrrolidin-2-yl)imidazo[1,5-a]pyrazin-1-yl)-N-(pyridin-2-yl)benzamide], in data set [1], the “Average amount (material sticking to the punch)” value turned out to be 30 µg. The “Cumulative amount (material sticking to the punch)” value in data set [1] is 60 µg. The Cumulative dissolution in data set [2] (0 min, pH 2.5 HCl/NaCl, 37° C.) is reported as 0.00 mg; in data set [2] (5 min, pH 2.5 HCl/NaCl, 37° C.), 1.28 mg; in data set [2] (10 min, pH 2.5 HCl/NaCl, 37° C.), 2.36 mg; in data set [2] (15 min, pH 2.5 HCl/NaCl, 37° C.), 3.68 mg; in data set [2] (20 min, pH 2.5 HCl/NaCl, 37° C.), 4.76 mg; in data set [2] (25 min, pH 2.5 HCl/NaCl, 37° C.) it was 5.51 mg. The Cumulative dissolution is reported as 6.71 mg in data set [2] (30 min, pH 2.5 HCl/NaCl, 37° C.); 7.65 mg in data set [2] (35 min, pH 2.5 HCl/NaCl, 37° C.); 9.50 mg in data set [2] (45 min, pH 2.5 HCl/NaCl, 37° C.). Also, the “IDR relative to that of Form I in WO2017002095A1” value in data set [2] (pH 2.5 HCl/NaCl solution) is listed as 1.2 times. In data set [2] (pH 2.5 HCl/NaCl, 37° C., slope over 0-45 minutes), the “IDR (intrinsic dissolution rate)” value was 0.4396 mg/min/cm^2. In addition, the “Bulk density (ρ0)” value in data set [3] was 0.443 g/mL. The “Tapped density (ρf)” value in data set [3] came out at 0.488 g/mL. Also, the Flowability result in data set [3] (by compressibility index) is recorded as “Good (11-15)”. In data set [3] (c=(ρf−ρ0)/ρf), this compound yielded a Compressibility index of 11%. The “Time kept stable (crystalline state doesn't change)” value in data set [4] (25° C./60% RH in closed dish) was “at least 2 months”. The Solid form result in data set [4] (25° C./60% RH in closed dish, 2 months) is given as “Form G”; in data set [4] (Initial), “Form G”. Further, in data set [4] (25° C./60% RH in closed dish, at least 2 months), the “Chemical purity on storage” value is listed as “remains substantially unchanged”.
